Entries after “also recorded” stand apart in the source; their conditions may differ.
Assays:
Type in all cases: cell-based, human
[1] = test system: more therapeutic hMSCs (donors M1 and M2); assay: Cytokine secretion of more therapeutic hMSCs after pharmacological intervention (Luminex 41 Plex, PLSDA); conditions: for overall paracrine (cytokine) signaling response / secretion of therapeutic related cytokines (GM-CSF, GRO, IL-4, PDGF-AA): donors M1 and M2, +IL-1β 24 hr, vs CTRL
Experimental: (§1) Loaded samples (2.03 μL) were determined to be within the linear range of detection of the […] Millipore Corporation) system. Cytokines were quantified using a bead based multiplex immunoassay, Luminex Cytokine/Chemokine 41 Plex Immunomodulatory Kit ([…] Millipore Corporation). […] PLSDA was performed in MATLAB (Mathworks) using a function written by Cleiton Nunes (Mathworks File Exchange). This approach accounts for the multivariate nature of the data without overfitting. Prior to inputting the data into the algorithm, all data was z-scored [(observed-mean)/SD]. Intracellular signaling phospho-proteins and cytokine media read outs were used as the independent variables and the different hMSC donor's treatment conditions were used as the outcome variables. LVs in a multidimensional space (dimensionality varied by number of independent input variables) were defined and the two primary LVs were used for orthogonal rotation to best separate groups in the new plane defined by LV1 and LV2 (FIGS. 5a-5c). • Statistical Analysis

p-Akt = assay: hMSC intracellular signaling analysis, Akt/mTOR phosphoprotein 11-plex
Description: Millipore Corporation) system.

[2] = test system: less therapeutic hMSCs (donors L1 and L2); assay: Cytokine secretion of less therapeutic hMSCs after pharmacological intervention (Luminex 41 Plex, PLSDA); conditions: vs CTRL
Experimental: as §1

Row | Structure (SMILES) | overall paracrine (cytokine) signaling response [1] | secretion of therapeutic related cytokines (GM-CSF, GRO, IL-4, PDGF-AA) [1] | other results
1 | Cc1cc(N2CCOCC2)cc2[nH]c(-c3c(NC[C@@H](O)c4cccc(Cl)c4)cc[nH]c3=O)nc12 [BMS-536924] | reduced overall paracrine signaling response | no effect | –
2 | NC1(c2ccc(-c3nc4ccn5c(=O)[nH]nc5c4cc3-c3ccccc3)cc2)CCC1 [MK-2206] | – | – | p-Akt phospho-protein levels relative to CTRL (p-Akt; less therapeutic hMSC donor L2, combination Metformin and MK-2206, +IL-1β): significantly (p<0.01) less p-Akt phospho-protein levels; also recorded: decreased p-Akt signaling; secretion of therapeutic related cytokines (GM-CSF, GRO, IL-4, PDGF-AA) ([2]; donors L1 and L2, +IL-1β 24 hr): no effect; secretion of nonspecific cytokines ([2]; donors L1 and L2, +IL-1β): distinct reductions in nonspecific cytokines
3 | CO[C@H]1C[C@@H]2CC[C@@H](C)[C@@](O)(O2)C(=O)C(=O)N2CCCC[C@H]2C(=O)O[C@H]([C@H](C)C[C@@H]2CC[C@@H](O)[C@H](OC)C2)CC(=O)[C@H](C)/C=C(\C)[C@@H](O)[C@@H](OC)C(=O)[C@H](C)C[C@H](C)/C=C/C=C/C=C/1C [Rapamycin] | – | no effect | –
4 | C[S+]([O-])c1ccc(-c2nc(-c3ccncc3)c(-c3ccc(F)cc3)[nH]2)cc1 (stereo not drawn) [SB203580] | – | reduced cytokine secretion of the therapeutic related cytokines | –
5 | CCOC(=O)C1=C(N)Oc2ccc(Cl)cc2C1C(C#N)C(=O)OCC (stereo not drawn) [SC79] | the greatest potentiation of paracrine signaling | no effect | p-Akt phospho-protein levels relative to CTRL (p-Akt; more therapeutic hMSC donor M2, combination SP600125 and SC79, +IL-1β): significantly (p<0.001) more p-Akt phospho-protein levels; also recorded: increased p-Akt signaling; secretion of nonspecific cytokines ([1]; donors M1 and M2, +IL-1β): potentiated secretion of nonspecific cytokines; shift of paracrine signaling profile (PLSDA) ([1]; donors M1 and M2, +IL-1β): clear qualitative shift in the paracrine signaling profiles

Source: patent US20250000910A1, “Methods of Improving Therapeutic Efficacy of Mesenchymal Stromal Cells for Treatment of Osteoarthritis” (Georgia Tech Research Corporation, priority 2021, published 2025)
